We go through seven compounds from patent publication US4206225A, “2,10-Disubstituted dibenzo[b,d]pyrans and benzo[c]quinolines” (priority 1978, dated 1980).

Experiment [1] deals with phenylbenzoquinone irritant-induced writhing in mice. The experiment is described as follows: Suppression of phenylbenzoquinone (PBQ) irritant-induced writhing. The experiment is classed as in vivo, mice (Carworth Farms CF-1). The conditions noted are these: Mus musculus, read-out: ED50 in PBQ Writhing Test. Here is the method: The analgesic properties of the compounds of this invention are determined by tests using thermal nociceptive stimuli, such as the mouse tail flick procedure, or chemical nociceptive stimuli, such as measuring the ability of a compound to suppress phenylbenzoquinone irritant-induced writhing in mice. These tests and others are described below.
Suppression of Phenylbenzoquinone Irritant-Induced Writhing
Groups of 5 Carworth Farms CF-1 mice are pretreated subcutaneously or orally with saline, morphine, codine or the test compound. Twenty minutes (if treated subcutaneously) or fifty minutes (if treated orally) later, each group is treated with intraperitoneal injection of phenylbenzoquinone, an irritant known to produce abdominal contractions. The mice are observed for 5 minutes for the presence or absence of writhing starting 5 minutes after the injection of the irritant. MPE50 's of the drug pretreatments in blocking writhing are ascertained.
(§1) Results of the above tests are recorded as percent maximum possible effect (% MPE). The % MPE of each group is statistically compared to the % MPE of the standard and the predrug control values. The % MPE is calculated as follows: [formula]
(§2) The analgesic activity is reported in terms of MPE50, the dose at which half of the maximal possible analgesic effect is observed in a given test.
The analgesic activity of several compounds of the invention in the above described test for suppresion of phenylbenzoquinone (PBQ) irritant-inducedwrithing are set forth below in Table I.

The test system of another experiment is rabbits. The settings on record: 20 mg./kg.; cited from earlier work.
Another experiment concerns animal pharmacology. The conditions noted are these: in vivo; cited from earlier work.
The subject of experiment [2] is thermal nociceptive stimulus (heat applied to the tail) in mice. Nature of the experiment: Mouse tail flick analgesic testing. Type of experiment: in vivo. The settings on record: s.c.
Source text: (b) Mouse Tail Flick Analgesic Testing
Tail flick testing in mice is modified after D'Amour and Smith, J. Pharmacol. Exp. Ther., 72, 74-79 (1941), using controlled high intensity heat applied to the tail. Each mouse is placed in a snug-fitting metal cylinder, with the tail protruding through one end. This cylinder is arranged so that the tail lies flat over a concealed heat lamp. At the onset of testing, an aluminum flag over the lamp is drawn back, allowing the light beam to pass through the slit and focus onto the end of the tail. A timer is simultaneously activated. The latency of a sudden flick of the tail is ascertained. Untreated mice usually react within 3-4 seconds after exposure to the lamp. The end point for protection is 10 seconds. Each mouse is tested at 0.5 and 2 hours after treatment with morphine and the test compound. Morphine has an MPE5 50 of 3.2-5.6 mg./kg. (s.c.).
as §1, §2

Experiment [3] has as its system thermal nociceptive stimulus (hot plate, 57° C.) in mice. Nature of the experiment: Mouse hot plate analgesic testing. Type of experiment: in vivo. The settings on record: s.c. The protocol: (a) Mouse Hot Plate Analgesic Testing
The method used is modified after Woolfe and MacDonald, J. Pharmacol. Exp. Ther., 80, 300-307 (1944). A controlled heat stimulus is applied to the feet of mice on a 1/8" think aluminum plate. A 250 watt reflector infrared heat lamp is place under the bottom of the aluminum plate. A thermal regulator, connected to thermistors on the plate surface, programs the heat lamp to maintain a constant temperature of 57° C. Each mouse dropped into a glass cylinder (61/2" diameter) resting on the hot plate, and timing is begun when the animal's feet touch the plate. At 0.5 and 2 hours after treatment with the test compound the mouse is observed for the first "flicking" movements of one or both hind feet or until 10 seconds elapse without such movements. Morphine has an MPE50 =4-5.6 mg./kg. (s.c.).
as §1, §2

[4] abbreviates: sc, subcutaneous, twenty minutes pretreatment.
[5] abbreviates: oral, fifty minutes pretreatment.

Where two headings read alike, the source gives them in different places.

As to `CC(CCCc1ccccc1)c1cc2c(cc1O)C1C(O)CCCC1C(C)(C)O2` (mixture of isomers) [Example 11, dl-cis-6a,7,8,9,10a-Hexahydro-2,10-dihydroxy-6,6-dimethyl-3-(1-methyl-4-phenylbutyl)-6H-dibenzo[b,d]pyran], in experiment [1] (setting [4]), the ED50 was found to be 27 mg/kg.

In the case of `CC(CCCc1ccccc1)c1cc2c(cc1O)C1=C(CCCC1)C(C)(C)O2` (racemic) [Example 16, dl-7,8,9,10-Tetrahydro-2-hydroxy-6,6-dimethyl-3-(1-methyl-4-phenylbutyl)-6H-dibenzo[b,d]pyran], the ED50 in experiment [1] (setting [5]) amounted to 10 mg/kg.

In the case of `CC(CCCc1ccccc1)c1cc2c(cc1O)C1=C(CCCC1O)C(C)(C)O2` (racemic) [Example 21, dl-7,8,9,10-Tetrahydro-2,10α-dihydroxy-6,6-dimethyl-3-(1-methyl-4-phenylbutyl)-6H-dibenzo[b,d]pyran], the ED50 in experiment [1] (setting [5]) came to 10 mg/kg.

On to `CC(CCCc1ccccc1)c1cc2c(cc1O)[C@@H]1C(=O)CCC[C@@H]1C(C)(C)O2` (relative stereo) [Example 9A, dl-cis-6a,7,8,9,10,10a-Hexahydro-2-hydroxy-6,6-dimethyl-3-(1-methyl-4-phenylbutyl)-10-oxo-6H-dibenzo[b,d]pyran], for which, in experiment [1] (setting [4]), the ED50 lay within 10 to 32 mg/kg.

Regarding `CCCCCc1cc2c(cc1O)C1=C(CCC(C)C1)C(C)(C)O2` (centres unmarked) [6,7,8,9-tetrahydro-2-hydroxy-3-n-amyl-6,6,9-trimethyldibenzo[b,d]pyran], the activity in rabbits result with rabbits is “inactive”.

In the case of `CCCCCc1cc(O)c2c(c1)N(C)C(C)(C)C1=C2CC(C)CC1` (centres unmarked) [7,8,9,10-tetrahydro-1-hydroxy-5,6,6,9-tetramethyl-3-n-pentylphenanthridine], in the experiment on animal pharmacology, the “activity in animal pharmacology” value is “completely inert”.

On to `CN1CC[C@]23c4c5ccc(O)c4O[C@H]2[C@@H](O)C=C[C@H]3[C@H]1C5` [Morphine], for which, in experiment [2], the “MPE50 (printed MPE5 50)” value lay within 3.2 to 5.6 mg/kg. Also, in experiment [3], the MPE50 is 4 to 5.6 mg/kg.
